Test results reported in patent publication US20200123175A1, “NOVEL ISOTHIAZOLO-BASED BICYCLES, PROCESSES FOR THEIR PREPARATION AND THEIR USE AS HERBICIDES AND/OR PLANT GROWTH REGULATORS” (Bayer CropScience Aktiengesellschaft, priority 2017, published 2020).

Legend:
Details in all cases: dosage 320 g/ha
ECHCG = test: Herbicidal action pre-emergence (PE); type: in vivo, Echinochloa crus-galli
MATIN = test: Herbicidal action pre-emergence (PE); type: in vivo, Matricaria inodora
AMARE [1] = test: Herbicidal action post-emergence (PO); type: in vivo, Amaranthus retroflexus
SETVI [2] = test: Herbicidal action post-emergence (PO); type: in vivo, Setaria viridis
POLCO = test: Herbicidal action pre-emergence (PE); type: in vivo, Polygonum convolvulus
VIOTR [3] = test: Herbicidal action pre-emergence (PE); type: in vivo, Viola tricolor
SETVI [4] = test: Herbicidal action pre-emergence (PE); type: in vivo, Setaria viridis
VIOTR [5] = test: Herbicidal action post-emergence (PO); type: in vivo, Viola tricolor
PHBPU = test: Herbicidal action post-emergence (PO); type: in vivo, Pharbitis purpurea
AMARE [6] = test: Herbicidal action pre-emergence (PE); type: in vivo, Amaranthus retroflexus
ABUTH = test: Herbicidal action post-emergence (PO); type: in vivo, Abutilon theophrasti

SMILES | ECHCG (ECHCG) | MATIN (MATIN) | AMARE (AMARE [1]) | SETVI (SETVI [2]) | POLCO (POLCO) | VIOTR (VIOTR [3]) | SETVI (SETVI [4]) | VIOTR (VIOTR [5]) | PHBPU (PHBPU) | AMARE (AMARE [6]) | ABUTH (ABUTH)
Nc1nsc2c(=O)n(CC3CCCCC3)cnc12 [Example I-17] | 100 | 100 | 100 | 100 | 100 | 100 | 100 | 100 | 100 | 100 | 90
Nc1nsc2c(=O)n(CC3=CCCCC3)cnc12 [Example I-29] | 100 | 100 | 100 | 100 | 100 | 100 | 100 | 100 | 80 | 100 | 80
Nc1nsc2c(=O)n(CC3CCCCCC3)cnc12 [Example I-31] | 90 | 100 |  |  | 100 | 100 | 100 |  |  | 100 | 
CC(c1ccccc1)n1cnc2c(NC(=O)C3CC3)nsc2c1=O (stereo not shown) [Example I-40] |  |  | 100 | 90 |  |  |  | 100 | 100 |  | 100
Nc1nsc2c1NCN(Cc1ccc(F)cc1F)C2=O [Example I-42] | 100 | 100 | 100 | 100 | 100 | 100 | 100 | 100 | 100 | 100 | 80
Nc1nsc2c1NCN(CC1CCCCO1)C2=O (stereo not shown) [Example I-43] | 100 | 90 |  |  | 100 | 100 | 90 |  |  | 100 | 
CCCC(=O)Nc1nsc2c(=O)n(CC3CCCCC3)cnc12 [Example I-45] | 100 | 100 | 100 |  | 100 | 100 | 100 | 90 |  | 100 | 100
O=C(Nc1nsc2c(=O)n(CC3CCCCC3)cnc12)C(F)(F)F [Example I-53] | 100 | 100 | 100 | 100 | 100 | 100 | 100 | 100 | 100 | 100 | 100
CCC(=O)Nc1nsc2c(=O)n(CC3CCCCC3)cnc12 [Example I-54] | 100 | 100 | 100 |  | 100 | 100 | 100 | 90 |  | 100 | 100
CC(=O)Nc1nsc2c(=O)n(CC3CCCCC3)cnc12 [Example I-55] | 100 | 100 | 100 |  | 100 | 100 | 100 | 100 |  | 100 | 100
O=C(CCl)Nc1nsc2c(=O)n(CC3CCCCC3)cnc12 [Example I-56] | 100 | 90 |  |  | 100 | 100 | 100 |  |  | 100 | 
O=C(Nc1nsc2c(=O)n(CC3CCCCC3)cnc12)C(F)(F)C(F)(F)F [Example I-57] | 100 | 100 | 100 |  | 100 | 100 | 100 | 100 |  | 100 | 100
O=C(Nc1nsc2c(=O)n(CC3CCCCC3)cnc12)C(F)(F)C(F)(F)C(F)(F)F [Example I-58] | 100 | 90 | 100 |  | 90 | 100 | 100 | 100 |  | 100 | 90
Nc1nsc2c1NCN(CC1CCCC1)C2=O [Example I-63] | 100 | 100 | 100 |  | 100 | 100 | 100 | 100 |  | 100 | 100
Nc1nsc2c1NCN(Cc1ccc(F)cc1)C2=O [Example I-64] | 100 | 100 | 100 |  | 90 | 100 | 100 | 80 |  | 100 | 90
O=C(Nc1nsc2c(=O)n(CC3CCCCC3)cnc12)C(F)(Cl)C(F)(F)F (stereo not shown) [Example I-67] | 100 | 100 |  |  | 100 | 100 | 100 |  |  | 100 | 
O=C(CC(F)(F)F)Nc1nsc2c(=O)n(CC3CCCCC3)cnc12 [Example I-73] | 100 | 100 | 100 |  | 100 | 100 | 100 | 100 |  | 100 | 100
Cc1nn(CC2CCCCC2)c(=O)c2snc(N)c12 [Example I-75, 3-amino-6-(cyclohexylmethyl)-4-methyl-isothiazolo[4,5-d]pyridazin-7-one] | 90 | 90 |  |  | 90 | 90 | 100 |  |  | 100 | 
O=C(Nc1nsc2c(=O)n(Cc3ccc(F)cc3F)cnc12)C(F)(F)C(F)(F)Cl [Example I-76] | 90 | 100 | 100 |  | 100 | 100 | 100 | 100 |  | 100 | 80
O=C(Nc1nsc2c(=O)n(Cc3ccc(F)cc3F)cnc12)C(F)(Cl)C(F)(F)F (stereo not shown) [Example I-77] | 80 | 100 |  |  | 100 | 100 | 100 |  |  | 100 | 
COC(=O)C(=O)Nc1nsc2c(=O)n(Cc3ccc(F)cc3F)cnc12 [Example I-81] | 100 | 100 |  |  | 100 | 100 | 90 |  |  | 100 | 
O=C(CC(F)(F)F)Nc1nsc2c(=O)n(Cc3ccc(F)cc3F)cnc12 [Example I-82] | 100 | 100 |  |  | 100 | 100 | 100 |  |  | 100 | 
COCC(=O)Nc1nsc2c(=O)n(Cc3ccc(F)cc3F)cnc12 [Example I-83] | 100 | 100 |  |  | 90 | 100 | 100 |  |  | 100 | 
